From PMC11435058, “Synthesis of New Thiazole-Privileged Chalcones as Tubulin Polymerization Inhibitors with Potential Anticancer Activities” (Pharmaceuticals, 2024)

Tests used:
[1] = tested on: DU-145; test: NCI-60 anticancer screen (SRB; single dose and five doses); conditions: Homo sapiens
[2] = tested on: UACC-62; test: as above; conditions: Homo sapiens
[3] = tested on: K-562; test: as above; conditions: Homo sapiens
[4] = tested on: MOLT-4; test: as above; conditions: Homo sapiens
[5] = tested on: MDA-MB-231/ATCC; test: as above; conditions: Homo sapiens
[6] = tested on: KM12; test: as above; conditions: Homo sapiens
[7] = tested on: HT29; test: as above; conditions: Homo sapiens
[8] = tested on: HOP-62; test: as above; conditions: Homo sapiens
[9] = tested on: SK-MEL-5; test: as above; conditions: Homo sapiens
[10] = tested on: T-47D; test: as above; conditions: Homo sapiens, T47D
[11] = tested on: RPMI-8226; test: as above; conditions: Homo sapiens
[12] = tested on: 60 human tumor cell lines panel; test: NCI-60 anticancer screen, whole panel (means and ranges over the cell lines); assay type: cell-based
[13] = tested on: HL-60(TB); test: NCI-60 anticancer screen (SRB; single dose and five doses); conditions: Homo sapiens
[14] = tested on: IGROV1; test: as above; conditions: Homo sapiens
[15] = five doses, mean graph midpoint over all cell lines

`Cc1[nH]c(=S)sc1C(=O)/C=C/c1cccc([N+](=O)[O-])c1` [2h, (E)-1-(4-Methyl-2-Thioxo-2,3-Dihydrothiazol-5-yl)-3-(3-Nitrophenyl)Prop-2-En-1-One] gave a GI50 ([1]; DU-145) of 2.4 µM, an IC50 ([1]; DU-145) of 3.89 µM and an activity at 10 µM ([1]; DU-145, 48 h, read-out: Growth Percentage) of 8.55%. The CC50 ([1]; DU-145, read-out: LC50) was 23.4 µM, the IC (TGI) ([1]; DU-145, read-out: TGI) was 6.17 µM and the GI50 ([2]; UACC-62) was 3.55 µM. It also gave an IC50 ([2]; UACC-62) of 7.94 µM, an activity at 10 µM ([2]; UACC-62, 48 h, read-out: Growth Percentage) of -56.7% and a CC50 ([2]; UACC-62, read-out: LC50) of 41.7 µM. For the same molecule, the IC (TGI) ([2]; UACC-62, read-out: TGI) was 15.8 µM, the GI50 ([3]; K562) was 3.09 µM and the IC50 ([3]; K562) was 3.72 µM. For the same molecule, the activity at 10 µM ([3]; K562, 48 h, read-out: Growth Percentage) was 13.8%, the CC50 ([3]; K562, read-out: LC50) was over 100 µM and the IC (TGI) ([3]; K562, read-out: TGI) was over 100 µM. The GI50 ([4]; MOLT-4) was 3.47 µM, the IC50 ([4]; MOLT-4) was 5.01 µM and the activity at 10 µM ([4]; MOLT-4, 48 h, read-out: Growth Percentage) was 13.3%. For the same molecule, the CC50 ([4]; MOLT-4, read-out: LC50) was over 100 µM, the IC (TGI) ([4]; MOLT-4, read-out: TGI) was 30.2 µM and the GI50 ([5]; MDA-MB-231) was 5.25 µM. The IC50 ([5]; MDA-MB-231) was 16.2 µM, the activity at 10 µM ([5]; MDA-MB-231, 48 h, read-out: Growth Percentage) was -17.6% and the CC50 ([5]; MDA-MB-231, read-out: LC50) was 44.7 µM. For the same molecule, the IC (TGI) ([5]; MDA-MB-231, read-out: TGI) was 17.8 µM, the GI50 ([6]; KM12) was 3.63 µM and the IC50 ([6]; KM12) was 5.37 µM. It also gave an activity at 10 µM ([6]; KM12, 48 h, read-out: Growth Percentage) of -78.4%, a CC50 ([6]; KM12, read-out: LC50) of 42.7 µM and an IC (TGI) ([6]; KM12, read-out: TGI) of 13.2 µM. It also gave a GI50 ([7]; HT-29) of 5.5 µM, an IC50 ([7]; HT-29) of 7.24 µM and an activity at 10 µM ([7]; HT-29, 48 h, read-out: Growth Percentage) of 20.4%. The CC50 ([7]; HT-29, read-out: LC50) was 60.3 µM, the IC (TGI) ([7]; HT-29, read-out: TGI) was 19.9 µM and the GI50 ([8]; HOP-62) was 3.98 µM. The IC50 ([8]; HOP-62) was 6.76 µM, the activity at 10 µM ([8]; HOP-62, 48 h, read-out: Growth Percentage) was 0.68% and the CC50 ([8]; HOP-62, read-out: LC50) was 40.7 µM. It also gave an IC (TGI) ([8]; HOP-62, read-out: TGI) of 12.3 µM, a GI50 ([9]; SK-MEL-5) of 13.2 µM and an IC50 ([9]; SK-MEL-5) of 22.9 µM. It also gave an activity at 10 µM ([9]; SK-MEL-5, 48 h, read-out: Growth Percentage) of -68.8%, a CC50 ([9]; SK-MEL-5, read-out: LC50) of 51.3 µM and an IC (TGI) ([9]; SK-MEL-5, read-out: TGI) of 26.3 µM. For the same molecule, the GI50 [10] was 2 µM, the IC50 [10] was 4.9 µM and the activity at 10 µM ([10]; 48 h, read-out: Growth Percentage) was -56.6%. It also gave a CC50 ([10]; read-out: LC50) of 66.1 µM, an IC (TGI) ([10]; read-out: TGI) of 7.08 µM and a GI50 ([11]; RPMI-8226) of 2.04 µM. It also gave an activity at 10 µM ([11]; RPMI-8226, 48 h, read-out: Growth Percentage) of 9.39%, an IC50 ([11]; RPMI-8226, five-dose, Leukemia RPMI-8226) of 3.72 µM and a CC50 ([11]; RPMI-8226, read-out: LC50) of over 100 µM. For the same molecule, the IC (TGI) ([11]; RPMI-8226, read-out: TGI) was 6.31 µM, the activity at 10 µM ([12]; Homo sapiens, 48 h, mean over the tested cell lines, dose of 10 μM, read-out: Mean growth percentage) was -21.8% and the “Log10GI50 _MID” value [12, 15] was -5.37 Molar. For the same molecule, the “Log10LC50 _MID” value [12, 15] was -4.34 Molar, the “Log10TGI _MID” value [12, 15] was -4.82 Molar and the GI50 ([13]; HL-60) was 1.95 µM. It also gave an IC50 ([13]; HL-60) of 3.31 µM, an activity at 10 µM ([13]; HL-60, 48 h, read-out: Growth Percentage) of 5.25% and a CC50 ([13]; HL-60, read-out: LC50) of over 100 µM. The IC (TGI) ([13]; HL-60, read-out: TGI) was 5.75 µM, the GI50 ([14]; IGROV-1) was 3.02 µM and the IC50 ([14]; IGROV-1) was 4.9 µM. For the same molecule, the activity at 10 µM ([14]; IGROV-1, 48 h, read-out: Growth Percentage) was 10.2%, the CC50 ([14]; IGROV-1, read-out: LC50) was 47.9 µM and the IC (TGI) ([14]; IGROV-1, read-out: TGI) was 12.3 µM.
